Measured values: patent US7790143B2, “Vaccines for immunization against helicobacter” (priority 2005, dated 2010)

Key:
Design in all cases: key: R: resistant; S: susceptible; I: intermediate
[1] = tested on: H. felis; conditions: 30 μg; taxon 4 H. felis; cited from earlier work
[2] = tested on: H. salomonis; conditions: 30 μg; taxon 5 H. salomonis; cited from earlier work
[3] = tested on: H. aurati; conditions: 30 μg; taxon 13 H. aurati; cited from earlier work
[4] = tested on: H. baculiformis M50T; assay: Susceptibility to antimicrobials (30 μg); format: cell-based; conditions: taxon 1 H. baculiformis (this study)
Description: Data were obtained from Bronsdon et al. (1991), Dewhirst et al. (2000a), Eaton et al. (1993), Fox et al. (1988, 1995), Hänninen et al. (1996, 2005), Jalava et al. (1997) Int J Syst Bacteriol 47, 975-982, Lee et al. (1988, Infect Immun 56, 2843-2850, 1992), Mendes et al. (1996); Patterson et al. (2000), Van den Buick et al. (2006, Int J Syst Evol Microbiol 56, 1559-1564).

[5] = tested on: H. acinonychis; conditions: 30 μg; taxon 7 H. acinonychis; cited from earlier work
[6] = tested on: H. muridarum; conditions: 30 μg; taxon 12 H. muridarum; cited from earlier work
[7] = tested on: H. mustelae; conditions: 30 μg; taxon 10 H. mustelae; cited from earlier work
[8] = tested on: H. bilis; conditions: 30 μg; taxon 8 H. bilis; cited from earlier work
[9] = tested on: H. bizzozeronii; conditions: 30 μg; taxon 3 H. bizzozeronii; cited from earlier work
[10] = tested on: H. trogontum; conditions: 30 μg; taxon 9 H. trogontum; cited from earlier work
[11] = tested on: H. nemestrinae; conditions: 30 μg; taxon 11 H. nemestrinae; cited from earlier work
[12] = tested on: H. pylori; conditions: 30 μg; taxon 6 H. pylori; cited from earlier work

## CC(=O)OCC1=C(C(=O)O)N2C(=O)[C@@H](NC(=O)Cc3cccs3)[C@H]2SC1 [Cephalothin]
[1]
  Susceptibility to: S
[2]
  Susceptibility to: S
[3]
  Susceptibility to: R
[4]
  Susceptibility to: R
[5]
  Susceptibility to: S
[6]
  Susceptibility to: R
[7]
  Susceptibility to: R
[8]
  Susceptibility to: R
[9]
  Susceptibility to: S
[10]
  Susceptibility to: R
[11]
  Susceptibility to: S
[12]
  Susceptibility to: S

## CCn1cc(C(=O)O)c(=O)c2ccc(C)nc21 [Nalidixic acid]
[1]
  Susceptibility to: R
[2]
  Susceptibility to: R
[3]
  Susceptibility to: S
[4]
  Susceptibility to: I
[5]
  Susceptibility to: R
[6]
  Susceptibility to: R
[7]
  Susceptibility to: S
[8]
  Susceptibility to: R
[9]
  Susceptibility to: R
[10]
  Susceptibility to: R
[11]
  Susceptibility to: R
[12]
  Susceptibility to: R
